Results as given in patent US20220402883A1, “COMPOUNDS AND METHODS FOR MODULATING RNA FUNCTION” (Arrakis Therapeutics, Inc., priority 2016, published 2022).
Structures can show the parent of a compound that is named as a salt.

Test system: RNA3WJ_0.0.0_5IB_3FAM (3WJ_0.0.0_5IB_3FAM RNA construct)
Test: Thermal shift binding assay
Details: for Melt. Temp. with cmpd / Shift melt. Temp.: RNA sequence 3WJ_0.0.0_5IB_FAM; for Melt. Temp. with cmpd: melting temperature in presence of compound; for Shift melt. Temp.: with cmpd minus without cmpd; for Temp. Shift: 1 μM RNA, 8 μM compound, 10 mM CacoK pH 7.2, 30 mM NaCl
Description: Purpose: Test binding of compounds for RNA three way junction (for example, a construct of 38 nt). Thermal shift assay based on established fluorescence quenching assay utilizing FAM as fluorescence tag and Iowa Black as quencher. Tags were attached at the 3′ and 5′ end, respectively. Stable formation of 3WJ upon compound binding would lead to quenching of the FAM fluorescence due to close proximity of the Iowa Black tag. Thermal unfolding leads to increase of fluorescence emission. Assay readout: FAM (465-510 nm) Thermal Shift.
Assay sample buffer used: 10 mM CacoK pH 7.2, 30 mM NaCl. Buffer preparation in Dnase/Rnase Free distilled water (Gibco Life Technologies).
Dilute the RNA 1:10 (final 10 μM) in Assay Buffer.
Heat up the diluted RNA up to 90° C. for 5 min (sealed Eppendorf Tube).
Cool down the RNA probe slowly to RT.
Dilute the compounds to 800 μM in DMSO (Assay: 8 μM). […]
Pipet 20 μL Sample Solution into Roche, Light Cycler480 Multiwell Plate96, white, REF 04729692001.
Measure the 96 plate with the LightCycler480 (Channel: 480/510 nm; Temperature: 41-91° C.).
Analyse measurement-data with the MeltingCurveGenotyping Mode.
Settings: Acquisition mode: continuous; Ramp rate: 0.1° C./sec; Acquisition: 6° C.
Curves are fitted with raw and normalized data.
Melting curves analysis show melting temperature (Tm) of ˜51° C. Range of RNA concentrations was tested and assay window was determined (conc. range of 0.5-1 μM yields best results). The choice of buffer also affected the Tm. RNA constructs were tested under different buffer conditions (especially in presence of salt) in the thermal shift assay. […] CacoK with 30 mM salt at 1 μM RNA conc. was used to assess compound effects on 3WJ stability. […] These conditions were used for screening test compounds.

| Compound | Melt. Temp. with cmpd | Shift melt. Temp. | Temp. Shift |
| --- | --- | --- | --- |
| CN(CCOCCN(C)C(=O)[C@@H]1C[C@H](N=[N+]=[N-])CN1C(=O)COc1ccc2c(=O)oc(=O)n(C)c2c1)C(=O)CCC12c3cc(NC(=O)CCCCCCCN)ccc3C(c3ccc(NC(=O)CCCCCCCN)cc31)c1ccc(NC(=O)CCCCCCCN)cc12 [ARK000024, N,N′,N″-(9-(3-((2-(2-((2S,4S)-4-azido-N-methyl-1-(2-((1-methyl-2,4-dioxo-1,4-dihydro-2H-benzo[d][1,3]oxazin-7-yl)oxy)acetyl)pyrrolidine-2-carboxamido)ethoxy)ethyl)(methyl)amino)-3-oxopropyl)-9,10-dihydro-9,10-[1,2]benzenoanthracene-2,7,15-triyl)tris(8-aminooctanamide)] | 60.7 °C | +0.3 °C | – |
| O=C(O)CCC12C3=C(CCNC3)C(c3ccccc31)c1ccccc12 [ARK000019] | 60.0 °C | −0.3 °C | – |
| CN(CCOCCOCCOCCNC(=O)CCC12c3cc(NC(=O)CCCCCCCN)ccc3C(c3ccc(NC(=O)CCCCCCCN)cc31)c1ccc(NC(=O)CCCCCCCN)cc12)C(=O)[C@@H]1C[C@H](N=[N+]=[N-])CN1C(=O)c1ccc(S(=O)(=O)F)cc1 [ARK000032, 4-((2S,4S)-4-azido-2-(methyl(12-methyl-13-oxo-15-(2,7,15-tris(8-aminooctanamido)-9,10-[1,2]benzenoanthracen-9(10H)-yl)-3,6,9-trioxa-12-azapentadecyl)carbamoyl)pyrrolidine-1-carbonyl)benzenesulfonyl fluoride] | 75.1 °C | +15.0 °C | +15.0 °C |
| CN(CCOCCN(C)C(=O)[C@@H]1C[C@H](N=[N+]=[N-])CN1C(=O)c1ccc2c(=O)oc(=O)n(C)c2c1)C(=O)CCC12c3cc(NC(=O)CCCCCCCN)ccc3C(c3ccc(NC(=O)CCCCCCCN)cc31)c1ccc(NC(=O)CCCCCCCN)cc12 [ARK000033, N,N′,N″-(9-(3-((2-(2-((2S,4S)-4-azido-N-methyl-1-(1-methyl-2,4-dioxo-1,4-dihydro-2H-benzo[d][1,3]oxazine-7-carbonyl)pyrrolidine-2-carboxamido)ethoxy)ethyl)(methyl)amino)-3-oxopropyl)-9,10-dihydro-9,10-[1,2]benzenoanthracene-2,7,15-triyl)tris(8-aminooctanamide)] | 62.4 °C | +0.9 °C | – |
| CN(CCOCCN(C)C(=O)[C@@H]1C[C@H](N=[N+]=[N-])CN1C(=O)c1ccc2c(=O)oc(=O)[nH]c2c1)C(=O)CCC12c3cc(NC(=O)CCCCCCCN)ccc3C(c3ccc(NC(=O)CCCCCCCN)cc31)c1ccc(NC(=O)CCCCCCCN)cc12 [ARK000034, N,N′,N″-(9-(3-((2-(2-((2S,4S)-4-azido-1-(2,4-dioxo-1,4-dihydro-2H-benzo[d][1,3]oxazine-7-carbonyl)-N-methylpyrrolidine-2-carboxamido)ethoxy)ethyl)(methyl)amino)-3-oxopropyl)-9,10-dihydro-9,10-[1,2]benzenoanthracene-2,7,15-triyl)tris(8-aminooctanamide)] | 60.2 °C | +0.3 °C | – |
| CC(C)(C)OC(=O)NCCCC[C@H](NC(=O)OC(C)(C)C)C(=O)Nc1ccc2c(c1)C1(CCC(=O)NCCOCCOCCN)c3cc(NC(=O)[C@H](CCCCNC(=O)OC(C)(C)C)NC(=O)OC(C)(C)C)ccc3C2c2ccc(NC(=O)[C@H](CCCCNC(=O)OC(C)(C)C)NC(=O)OC(C)(C)C)cc21 [ARK000022] | 60.2 °C | +0.4 °C | – |
| CN(CCOCCOCCNC(=O)CCC12c3cc(NC(=O)CCCCCCCN)ccc3C(c3ccc(NC(=O)CCCCCCCN)cc31)c1ccc(NC(=O)CCCCCCCN)cc12)C(=O)[C@@H]1C[C@H](N=[N+]=[N-])CN1C(=O)c1ccc(S(=O)(=O)F)cc1 [ARK000031, N,N′,N″-(9-(1-((2S,4S)-4-azido-1-(3-(4-(fluorosulfonyl)benzoyl)pyrrolidin-2-yl)-2,11-dimethyl-1,12-dioxo-5,8-dioxa-2,11-diazatetradecan-14-yl)-9,10-dihydro-9,10-[1,2]benzenoanthracene-2,7,15-triyl)tris(azanediyl))tris(8-aminooctanamide)] | 84.1 °C | +24.1 °C | +24.1 °C |
| NCCCC[C@@H](N)C(=O)Nc1ccc2c(c1)C1c3cc(NC(=O)[C@H](N)CCCCN)ccc3C2c2ccc(NC(=O)[C@H](N)CCCCN)cc21 [ARK000016, (2R,2′R,2″R)—N,N′,N″-(9,10-dihydro-9,10-[1,2]benzenoanthracene-2,7,15-triyl)tris(2,6-diaminohexanamide)] | 83.8 °C | +21.3 °C | – |
| CN(c1ccc(-c2ccc(-c3cn[nH]c3)cc2O)nn1)C1CC(C)(C)NC(C)(C)C1 [ARK000011] | 60.3 °C | −1.4 °C | – |
| CN(CCOCCN(C)C(=O)[C@@H]1C[C@H](N=[N+]=[N-])CN1C(=O)CCc1ccc(S(=O)(=O)F)cc1)C(=O)CCC12c3cc(NC(=O)CCCCCCCN)ccc3C(c3ccc(NC(=O)CCCCCCCN)cc31)c1ccc(NC(=O)CCCCCCCN)cc12 [ARK000027] | 83.4 °C | +23.7 °C | – |
| CN(CCOCCN(C)C(=O)[C@@H]1C[C@H](N=[N+]=[N-])CN1C(=O)c1ccc(S(=O)(=O)F)cc1)C(=O)CCC12c3cc(NC(=O)CCCCCCCN)ccc3C(c3ccc(NC(=O)CCCCCCCN)cc31)c1ccc(NC(=O)CCCCCCCN)cc12 [ARK000030] | 64.8 °C | +4.8 °C | – |
| CN(CCOCCOCCOCCNC(=O)CCC12c3cc(NC(=O)CCCCCCCN)ccc3C(c3ccc(NC(=O)CCCCCCCN)cc31)c1ccc(NC(=O)CCCCCCCN)cc12)C(=O)[C@@H]1C[C@H](N=[N+]=[N-])CN1C(=O)COc1ccc2c(=O)oc(=O)n(C)c2c1 [ARK000026, N,N′,N″-(9-(1-((2S,4S)-4-azido-1-(2-((1-methyl-2,4-dioxo-1,4-dihydro-2H-benzo[d][1,3]oxazin-7-yl)oxy)acetyl)pyrrolidin-2-yl)-2,14-dimethyl-1,15-dioxo-5,8,11-trioxa-2,14-diazaheptadecan-17-yl)-9,10-dihydro-9,10-[1,2]benzenoanthracene-2,7,15-triyl)tris(8-aminooctanamide)] | 60.9 °C | −1.2 °C | – |

Now from value to molecule, other results behind:

| Melt. Temp. with cmpd | Shift melt. Temp. | Compound | Temp. Shift |
| --- | --- | --- | --- |
| 61.4 °C | −0.2 °C | CC1(C)CC(Oc2ccc(-c3ccc(-c4cn[nH]c4)cc3O)nn2)CC(C)(C)N1 [ARK000010] | – |
| 60.2 °C | +0.3 °C | O=C(O)CCC12C3=C(CNCC3)C(c3ccccc31)c1ccccc12 [ARK000020] | – |
| 40.5 °C | −19.0 °C | CCOC(=O)c1ccccc1NC(=O)N1CCCN(Cc2csc(C)n2)CC1 [ARK000021] | – |
| 62.9 °C | +0.6 °C | C#CCCCC(=O)NC[C@H]1O[C@H](O[C@H]2[C@H](O)[C@@H](O[C@H]3O[C@H](CN=[N+]=[N-])[C@@H](O)[C@H](N)[C@H]3O)[C@H](N)C[C@@H]2N)[C@H](O)[C@@H](O)[C@@H]1O [ARK000009] | – |
| 60.8 °C | +0.2 °C | N[C@H](Cc1c[nH]cn1)C(=O)Nc1ccc2c(c1)C1c3cc(NC(=O)[C@H](N)Cc4c[nH]cn4)ccc3C2c2ccc(NC(=O)[C@H](N)Cc3cnc[nH]3)cc21 [ARK000018, (2R,2′R,2″R)—N,N′,N″-(9,10-dihydro-9,10-[1,2]benzenoanthracene-2,7,15-triyl)tris(2-amino-3-(1H-imidazol-4-yl)propanamide) hydrochloride] | – |
| 60.6 °C | −0.6 °C | N[C@@H](Cc1c[nH]cn1)C(=O)Nc1ccc2c(c1)C1c3cc(NC(=O)[C@@H](N)Cc4c[nH]cn4)ccc3C2c2ccc(NC(=O)[C@@H](N)Cc3cnc[nH]3)cc21 [ARK000017, (2S,2′S,2″S)—N,N′,N″-(9,10-dihydro-9,10-[1,2]benzenoanthracene-2,7,15-triyl)tris(2-amino-3-(1H-imidazol-4-yl)propanamide)hydrochloride] | – |
| 60.7 °C | +0.6 °C | CC(C)(C)OC(=O)NCCCC[C@H](NC(=O)OC(C)(C)C)C(=O)Nc1ccc2c(c1)C1(CCC(=O)NCCOCCOCCN)c3cc(NC(=O)[C@@H](CCCCNC(=O)OC(C)(C)C)NC(=O)OC(C)(C)C)ccc3C2c2ccc(NC(=O)[C@@H](CCCCNC(=O)OC(C)(C)C)NC(=O)OC(C)(C)C)cc21 [ARK000023] | – |
